# Reference: patent publication US9422226B2 (Biogen MA Inc., priority 2011, dated 2016)
# Where a name gives a salt, the structure may show the parent alone. Read-outs that look alike come from different tables or passages of the source.
# Assays:
# serum proteins = settings: cited from earlier work
# [1] = high doses; cited from earlier work
# [2] = Methanolysis of dimethyl sulfate, 1H NMR kinetics; format: physicochemical; settings: 65° C., 1.5 mole % DMS in dry methanol
# Description: Solutions of 1.5 mole % DMS and methanol were heated in a sealed tube to 35° C. and the time-dependent NMR spectra were collected for these mixtures. […] Use of NMR data helped confirm the reaction mechanism proposed in Scheme 2.
# The reaction proceeded more slowly at 35° C. but clearly confirms the formation of dimethyl ether (DME). The gradual downfield shift of the exchangeable OH resonance (4.8 ppm) supports the generation of a strong acid i.e., MMS (Scheme 5). Another set of duplicate experiments were performed under the reaction conditions at 65° C. (again spiking 1.5 mole % DMS into dry methanol with <0.01% water and no sulfuric acid) and monitoring the reaction for 60 minutes. This reaction was considered to be essentially irreversible under nominal plant process conditions since the reaction vessels are not pressurized and the resultant dimethyl ether would bubble out of solution.
# [3] = Hydrolysis of dimethyl sulfate, water spiking, 1H NMR kinetics; format: physicochemical; settings: 65° C., water 10.5, 14.0, 17.7 mole % in DMS-methanol
# Description: The hydrolysis rate of dimethyl sulfate was determined by spiking known amounts of water into a mixture of DMS and methanol. Water was spiked into DMS-methanol solutions at three different levels—10.5, 14.0, and 17.7 mole % equivalents. The reactions were monitored for 60 minutes at 65° C. and the DMS peak integrals obtained.
# The rate constant for the hydrolysis of DMS (k−2) was derived by fitting all the data to a DynoChem model that used the time-dependant peak integral data.
# [4] = Particle size of dimethyl fumarate by laser diffraction during and after drying; format: physicochemical
# Description: The particle sizes reported here are based on a measured distribution. In one embodiment, the particle sizes are measured using a Laser Diffraction technique that correlates light scattering to particle volume on which “effective length or effective diameter” is calculated. The distribution is based on a measurement of thousands of particles. Particles samples can be in dry form or in slurry. In one embodiment, the instrument used to determine particle size/distribution is a Beckman Coulter LS230 or a Malvern Mastersizer.
# The effect of temperature, pressure, and drying time on particle size was also investigated. […] Development studies examined the extent of sublimation under the drying conditions employed in the manufacturing plant. The first 3 entries in Table 5 are lab samples collected after 7, 24, and 48 hours drying time. The result from the three lab samples confirms that drying has no effects on the particle size. The particle size of lab samples were also compared to two representative plant samples which were dried for 48 hours and 72 hours. There is no change in particle size during drying.
# [5] = Lab crystallization experiments with different cooling rates, mean particle size; format: physicochemical; settings: isolated from the reaction mixture prior to milling
# Description: In the current process the mixture was cooled from reaction temperature 65° C. to the end temperature 20-25° C. in about 8 hours, stirred for 1-2 hours, and filtered to isolate the product.
# Table 2 highlights results from laboratory crystallization experiments with cooling rates chosen within manufacturing equipment capabilities.
# [6] = Mean particle size before and after jet milling; format: physicochemical
# Source text: These particles were milled to produce particles of a suitable size for consistent handling and uniformity for drug product processing. The target specification for particle size is ≧97% of the particles <250 μm. The dimethyl fumarate drug substance was milled consistently to meet this specification using a jet mill. […] It is evident that the milling operation is capable of producing a drug substance of suitable quality.
# [7] = test system: Ehrlich solid tumor cells; settings: in mice; cited from earlier work
# [8] = Formation of monomethyl sulfate from sulfuric acid and methanol, 1H NMR kinetics; format: physicochemical; settings: 65° C., dry methanol and concentrated sulfuric acid; ±7% RSD
# Description: All ^1H NMR spectra were obtained in and referenced against DMSO-d6 at 2.5 ppm using a Varian 500 MHz NMR. Concentrated sulfuric acid, fumaric acid, and dimethyl fumarate were obtained from the Sigma-Aldrich Chemical Company. Authentic standards of MMS (Na salt) and DMS were also obtained from Sigma-Aldrich. For spiking identification purposes, an authentic sample of MMS was prepared by passing a methanolic solution of the commercially available sodium salt through Amberlite FPA 22 resin (H form, 10 molar equivalents), and concentrating to an oil on a flash evaporator.
# All small scale reactions performed in the study were magnetically stirred and carried out using an insulated oil bath maintained at 65 deg±1° C. […]
# Sampling of reactions involved removal of a minimum of 150-400 μL of reaction solution, addition to DMSO-d6 (lock solvent) as required to make up a 650 μL solution in each NMR tube. Samples were chilled in an ice/water bath, and analyzed within 5-10 minutes of their preparation. […]
# Dry methanol (<0.01% water) was mixed with concentrated dry sulfuric acid and heated to 65° C. […] Equilibrium was reached within 1 hour, resulting in an essentially quantitative conversion of sulfuric acid to monomethyl sulfate. […] The second-order forward rate constant (k1) for the formation of MMS at 65° C. was determined to be 6.4×10^−5 L/mol-sec with a confidence interval of ±7% RSD.
# [9] = Hydrolysis of monomethyl sulfate, water spiking, 1H NMR; format: physicochemical
# Description: The rate constant of this reaction was measured by spiking water into solutions containing MMS (1.5 mole %) and monitoring the heated, sealed, vessel by ^1H NMR for 45 hours. Water was spiked into the matrix at two different levels—6 mole % and 12 mole %. […] In order to develop the larger model, the MMS equilibrium constant K (k1/k−1) was assigned a value of 999:1 in favor of the forward reaction, thus conservatively defining k−1 as 6.4×10^−8 L/mol-sec.
# [10] = cited from earlier work; for rate constant for the hydrolysis of MMS, extrapolated: at 25° C.
structure (smiles),measurement,setting,value
COC(=O)/C=C/C(=O)O [methyl hydrogen fumarate],bound by serum proteins,serum proteins,30%
N#C/C=C/C#N [fumaronitrile],side effects and toxicity,[1],high toxicity
"COS(=O)(=O)OC [DMS, dimethyl sulfate]",rate constant for the methanolysis of DMS (k3),[2],4.1e-05 M⁻¹ s⁻¹
same,rate constant for the hydrolysis of DMS (k−2),[3],0.00023 M⁻¹ s⁻¹
NC(=O)/C=C/C(N)=O [fumaramide],side effects and toxicity,[1],high toxicity
COC(=O)/C=C/C(=O)OC [dimethyl fumarate],"Particle Size by Laser Diffraction, D10",[4]; drying time 7 h (lab),328 μm
same,"Particle Size by Laser Diffraction, D50",[4]; drying time 7 h (lab),566 μm
same,"Particle Size by Laser Diffraction, D90",[4]; drying time 7 h (lab),850 μm
same,"Particle Size by Laser Diffraction, D97",[4]; drying time 7 h (lab),987 μm
same,"Particle Size by Laser Diffraction, Mean",[4]; drying time 7 h (lab),524 μm
same,"Particle Size by Laser Diffraction, D10",[4]; drying time 24 h (lab),323 μm
same,"Particle Size by Laser Diffraction, D50",[4]; drying time 24 h (lab),562 μm
same,"Particle Size by Laser Diffraction, D90",[4]; drying time 24 h (lab),843 μm
same,"Particle Size by Laser Diffraction, D97",[4]; drying time 24 h (lab),979 μm
same,"Particle Size by Laser Diffraction, Mean",[4]; drying time 24 h (lab),521 μm
same,"Particle Size by Laser Diffraction, D10",[4]; drying time 48 h (lab),340 μm
same,"Particle Size by Laser Diffraction, D50",[4]; drying time 48 h (lab),567 μm
same,"Particle Size by Laser Diffraction, D90",[4]; drying time 48 h (lab),845 μm
same,"Particle Size by Laser Diffraction, D97",[4]; drying time 48 h (lab),980 μm
same,"Particle Size by Laser Diffraction, Mean",[4]; drying time 48 h (lab),535 μm
same,"Particle Size by Laser Diffraction, D10",[4]; drying time 48 h (plant),332 μm
same,"Particle Size by Laser Diffraction, D50",[4]; drying time 48 h (plant),561 μm
same,"Particle Size by Laser Diffraction, D90",[4]; drying time 48 h (plant),828 μm
same,"Particle Size by Laser Diffraction, D97",[4]; drying time 48 h (plant),956 μm
same,"Particle Size by Laser Diffraction, Mean",[4]; drying time 48 h (plant),536 μm
same,"Particle Size by Laser Diffraction, D10",[4]; drying time 72 h (plant),327 μm
same,"Particle Size by Laser Diffraction, D50",[4]; drying time 72 h (plant),562 μm
same,"Particle Size by Laser Diffraction, D90",[4]; drying time 72 h (plant),834 μm
same,"Particle Size by Laser Diffraction, D97",[4]; drying time 72 h (plant),963 μm
same,"Particle Size by Laser Diffraction, Mean",[4]; drying time 72 h (plant),524 μm
same,Mean Particle Size,[5]; cooling rate 5° C./h,475 μm
same,Mean Particle Size,[5]; cooling rate 8° C./h,448 μm
same,Mean Particle Size,[5]; cooling rate 15° C./h,475 μm
same,Mean Particle Size,[6]; after jet milling,20-40 μm
same,Mean Particle Size,"[6]; isolated from the dryer, before milling",550-650 μm
O=C(O)/C=C/C(=O)O [fumaric acid],growth of Ehrlich solid tumor cells,[7],impede the growth
O=C(O)/C(O)=C(\O)C(=O)O [dihydroxy fumaric acid],side effects and toxicity,[1],high toxicity
"COS(=O)(=O)O [MMS, monomethyl sulfate]",second-order forward rate constant (k1) for the formation of MMS,[8],6.4e-05 M⁻¹ s⁻¹
same,MMS level after water spiking,"[9]; MMS 1.5 mole %, water 6 and 12 mole %, heated sealed vessel, 45 hours",virtually unchanged
same,hydrolysis rate constant k−1,"[9]; from K (k1/k−1) assigned 999:1, conservative",6.4e-08 M⁻¹ s⁻¹
same,equilibrium constant for the hydrolysis of monomethyl sulfate,"[10]; T=100° C. to 150° C., sulfuric acid 1-4 M",0.027 M⁻¹
same,"rate constant for the hydrolysis of MMS, extrapolated","[10]; 1M HCl, T=40° C. to 100° C.",1.7e-08 M⁻¹ s⁻¹
same,"rate constant for the hydrolysis of MMS, extrapolated","[10]; pH=3 to 10, T=100° C. to 190° C.",2.2e-11 M⁻¹ s⁻¹
